Assay results taken from the NIST ThermoML archive (doi:10.1016/j.tca.2014.10.001).

Assay: mn = molality of the nth substance listed, in mol/kg
Details: 100 kPa, Liquid; for electrical conductivity: Alternating current cell with electrodes; for speed of sound: Frequency=3 MHz, Sing-around technique in a fixed-path interferometer; for mass density: Vibrating tube method

CCCCn1cc[n+](C)c1C.F[B-](F)(F)F [1-butyl-2,3-dimethylimidazolium tetrafluoroborate] + O
Details | electrical conductivity [S/m] | mass density [kg/m3] | speed of sound [m/s]
288.15 K, m1 = 0.03 | 0.229 | – | –
288.15 K, m1 = 0.0308 | – | 1000.29 | 1471.8
288.15 K, m1 = 0.0312 | 0.236 | – | –
288.15 K, m1 = 0.0324 | 0.245 | – | –
288.15 K, m1 = 0.0338 | 0.256 | – | –
288.15 K, m1 = 0.0353 | 0.265 | – | –
288.15 K, m1 = 0.0369 | 0.276 | – | –
288.15 K, m1 = 0.0386 | 0.288 | – | –
288.15 K, m1 = 0.0406 | 0.303 | – | –
288.15 K, m1 = 0.04107 | – | 1000.68 | 1474.2
288.15 K, m1 = 0.0427 | 0.319 | – | –
288.15 K, m1 = 0.0451 | 0.336 | – | –
288.15 K, m1 = 0.0477 | 0.355 | – | –
288.15 K, m1 = 0.0507 | 0.375 | – | –
288.15 K, m1 = 0.05137 | – | 1001.08 | 1476.5
288.15 K, m1 = 0.0541 | 0.399 | – | –
288.15 K, m1 = 0.058 | 0.427 | – | –
288.15 K, m1 = 0.06162 | – | 1001.46 | 1478.6
288.15 K, m1 = 0.0624 | 0.457 | – | –
288.15 K, m1 = 0.0677 | 0.491 | – | –
288.15 K, m1 = 0.07 | 0.508 | – | –
288.15 K, m1 = 0.0725 | 0.526 | – | –
288.15 K, m1 = 0.0752 | 0.542 | – | –
288.15 K, m1 = 0.0781 | 0.564 | – | –
288.15 K, m1 = 0.0812 | 0.586 | – | –
288.15 K, m1 = 0.08198 | – | 1002.23 | 1482.5
288.15 K, m1 = 0.0846 | 0.608 | – | –
288.15 K, m1 = 0.0882 | 0.634 | – | –
288.15 K, m1 = 0.0922 | 0.661 | – | –
288.15 K, m1 = 0.0966 | 0.688 | – | –
288.15 K, m1 = 0.1014 | 0.713 | – | –
288.15 K, m1 = 0.1024 | – | 1002.99 | 1485.2
288.15 K, m1 = 0.1068 | 0.745 | – | –
288.15 K, m1 = 0.1127 | 0.772 | – | –
288.15 K, m1 = 0.1193 | 0.806 | – | –
288.15 K, m1 = 0.1231 | – | 1003.74 | 1486.4
288.15 K, m1 = 0.1267 | 0.846 | – | –
288.15 K, m1 = 0.1352 | 0.891 | – | –
288.15 K, m1 = 0.1436 | – | 1004.47 | 1487.1
288.15 K, m1 = 0.1448 | 0.941 | – | –
288.15 K, m1 = 0.1559 | 0.997 | – | –
288.15 K, m1 = 0.164 | – | 1005.19 | 1487.7
288.15 K, m1 = 0.1688 | 1.06 | – | –
288.15 K, m1 = 0.1841 | 1.14 | – | –
288.15 K, m1 = 0.1846 | – | 1005.91 | 1488.2
288.15 K, m1 = 0.2025 | 1.23 | – | –
288.15 K, m1 = 0.205 | – | 1006.62 | 1488.7
298.15 K, m1 = 0.0306 | 0.247 | – | –
298.15 K, m1 = 0.031 | 0.249 | – | –
298.15 K, m1 = 0.0323 | 0.259 | – | –
298.15 K, m1 = 0.0337 | 0.27 | – | –
298.15 K, m1 = 0.0352 | 0.28 | – | –
298.15 K, m1 = 0.0368 | 0.291 | – | –
298.15 K, m1 = 0.0387 | 0.305 | – | –
298.15 K, m1 = 0.0407 | 0.319 | – | –
298.15 K, m1 = 0.0429 | 0.334 | – | –
298.15 K, m1 = 0.0454 | 0.351 | – | –
298.15 K, m1 = 0.0472 | 0.366 | – | –
298.15 K, m1 = 0.0491 | 0.379 | – | –
298.15 K, m1 = 0.0513 | 0.395 | – | –
298.15 K, m1 = 0.0536 | 0.413 | – | –
298.15 K, m1 = 0.0562 | 0.432 | – | –
298.15 K, m1 = 0.0575 | 0.441 | – | –
298.15 K, m1 = 0.059 | 0.45 | – | –
298.15 K, m1 = 0.0605 | 0.462 | – | –
298.15 K, m1 = 0.0621 | 0.472 | – | –
298.15 K, m1 = 0.0637 | 0.485 | – | –
298.15 K, m1 = 0.0655 | 0.498 | – | –
298.15 K, m1 = 0.0674 | 0.513 | – | –
298.15 K, m1 = 0.0694 | 0.528 | – | –
298.15 K, m1 = 0.0715 | 0.54 | – | –
298.15 K, m1 = 0.0737 | 0.557 | – | –
298.15 K, m1 = 0.0761 | 0.575 | – | –
298.15 K, m1 = 0.0786 | 0.595 | – | –
298.15 K, m1 = 0.0813 | 0.615 | – | –
298.15 K, m1 = 0.0842 | 0.636 | – | –
298.15 K, m1 = 0.0874 | 0.658 | – | –
298.15 K, m1 = 0.0907 | 0.682 | – | –
298.15 K, m1 = 0.0943 | 0.708 | – | –
298.15 K, m1 = 0.0983 | 0.735 | – | –
298.15 K, m1 = 0.1026 | 0.761 | – | –
